Measured values as given in ChEMBL document CHEMBL1201862, “PubChem BioAssay data set” (2004).
Active and inactive are the calls of the source.

Columns and labels:
[1] = SAR analysis of small molecule activators of Apaf-1 using a LZ-Caspase-9/Caspase-3 Fluorescent Selectivity assay - Set 2.; assay type: functional; conditions: read-out: EC50_Mean
[2] = molecular target: T1, Apoptotic protease-activating factor 1 (Homo sapiens, UniProt O14727); assay: SAR analysis of small molecule Activators of Apaf-1 in a Fluorescent assay - set 2.; assay type: functional; conditions: read-out: EC50_Mean
T1 sequence (O14727 whole entry): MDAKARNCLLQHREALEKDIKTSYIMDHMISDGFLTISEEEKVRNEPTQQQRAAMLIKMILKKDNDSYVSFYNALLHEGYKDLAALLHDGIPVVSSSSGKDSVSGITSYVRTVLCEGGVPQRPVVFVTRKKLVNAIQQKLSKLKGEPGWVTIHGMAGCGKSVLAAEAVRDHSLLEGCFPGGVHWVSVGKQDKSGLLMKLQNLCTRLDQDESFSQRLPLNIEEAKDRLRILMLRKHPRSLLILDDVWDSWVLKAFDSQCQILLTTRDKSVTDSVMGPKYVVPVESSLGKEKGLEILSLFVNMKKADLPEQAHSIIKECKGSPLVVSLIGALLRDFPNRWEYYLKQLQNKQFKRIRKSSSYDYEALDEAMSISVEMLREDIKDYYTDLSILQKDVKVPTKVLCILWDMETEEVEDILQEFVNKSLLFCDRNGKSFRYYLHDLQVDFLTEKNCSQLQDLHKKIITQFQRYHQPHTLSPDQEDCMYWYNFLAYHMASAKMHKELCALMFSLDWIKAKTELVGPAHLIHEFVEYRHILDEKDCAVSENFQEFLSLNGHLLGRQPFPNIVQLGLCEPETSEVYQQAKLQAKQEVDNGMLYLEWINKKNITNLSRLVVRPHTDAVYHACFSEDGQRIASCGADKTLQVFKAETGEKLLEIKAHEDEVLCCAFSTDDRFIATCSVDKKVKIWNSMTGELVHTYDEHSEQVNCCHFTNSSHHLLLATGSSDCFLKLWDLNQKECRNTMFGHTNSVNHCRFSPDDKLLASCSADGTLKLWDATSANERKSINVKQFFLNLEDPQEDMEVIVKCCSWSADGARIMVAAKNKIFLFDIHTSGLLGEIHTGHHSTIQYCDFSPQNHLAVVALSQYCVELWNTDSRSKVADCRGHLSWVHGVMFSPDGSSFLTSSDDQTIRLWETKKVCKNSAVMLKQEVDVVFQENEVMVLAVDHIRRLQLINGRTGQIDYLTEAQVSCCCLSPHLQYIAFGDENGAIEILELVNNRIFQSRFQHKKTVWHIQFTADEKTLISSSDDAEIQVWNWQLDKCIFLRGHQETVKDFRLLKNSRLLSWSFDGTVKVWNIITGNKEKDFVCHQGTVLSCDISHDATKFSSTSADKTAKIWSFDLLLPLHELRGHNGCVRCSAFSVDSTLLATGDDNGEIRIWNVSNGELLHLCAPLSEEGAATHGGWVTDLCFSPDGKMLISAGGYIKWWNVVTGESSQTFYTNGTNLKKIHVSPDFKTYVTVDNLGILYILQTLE

[3] = molecular target: Melanin-concentrating hormone receptor 1 (Homo sapiens, UniProt Q99705); assay: Late-stage fluorescence-based counterscreen for antagonists of the G-protein coupled receptor 7 (GPR7): cell-based dose response assay to identify antagonists of the melanin-concentrating hormone receptor 1 (MCHR1) Set 6.; assay type: functional
Melanin-concentrating hormone receptor 1, sequence (Q99705 whole entry): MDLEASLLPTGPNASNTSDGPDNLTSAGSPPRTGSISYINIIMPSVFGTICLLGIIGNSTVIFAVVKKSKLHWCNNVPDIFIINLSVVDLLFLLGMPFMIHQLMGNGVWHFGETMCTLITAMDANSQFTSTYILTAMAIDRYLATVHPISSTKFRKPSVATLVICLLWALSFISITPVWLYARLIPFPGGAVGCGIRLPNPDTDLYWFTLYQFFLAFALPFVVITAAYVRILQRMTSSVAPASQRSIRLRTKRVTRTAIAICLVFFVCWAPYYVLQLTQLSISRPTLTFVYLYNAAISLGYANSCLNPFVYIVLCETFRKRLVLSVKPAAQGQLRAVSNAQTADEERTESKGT

[4] = molecular target: 72 kDa type IV collagenase (Homo sapiens, UniProt P08253); assay: Dose Response validation of uHTS RPN11 inhibitor hits using a MMP-2 Fluorescence assay.; assay type: functional
72 kDa type IV collagenase, sequence (P08253 whole entry): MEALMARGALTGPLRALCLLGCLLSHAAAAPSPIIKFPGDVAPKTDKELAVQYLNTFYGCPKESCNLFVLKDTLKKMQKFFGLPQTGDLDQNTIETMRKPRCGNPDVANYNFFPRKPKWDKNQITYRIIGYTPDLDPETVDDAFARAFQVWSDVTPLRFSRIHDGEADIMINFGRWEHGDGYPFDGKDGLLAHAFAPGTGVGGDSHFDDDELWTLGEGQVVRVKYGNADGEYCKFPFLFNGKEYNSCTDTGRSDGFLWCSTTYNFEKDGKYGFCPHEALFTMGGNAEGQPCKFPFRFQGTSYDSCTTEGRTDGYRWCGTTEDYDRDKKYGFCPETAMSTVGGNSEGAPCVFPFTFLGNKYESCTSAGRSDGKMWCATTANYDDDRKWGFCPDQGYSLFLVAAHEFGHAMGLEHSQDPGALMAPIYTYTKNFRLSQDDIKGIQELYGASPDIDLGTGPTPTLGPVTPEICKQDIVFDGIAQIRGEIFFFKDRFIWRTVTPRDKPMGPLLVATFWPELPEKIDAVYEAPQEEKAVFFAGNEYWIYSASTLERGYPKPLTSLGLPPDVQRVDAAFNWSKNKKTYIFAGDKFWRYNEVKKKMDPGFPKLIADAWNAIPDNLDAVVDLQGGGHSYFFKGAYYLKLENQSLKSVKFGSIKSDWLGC

[5] = molecular target: 26S proteasome non-ATPase regulatory subunit 14 (Homo sapiens, UniProt O00487); assay: inhibition of proteasome subunit RPN11 – biochemical, fluorescence polarization, uHTS hits, confirmation (AID 602368); assay type: functional
26S proteasome non-ATPase regulatory subunit 14, sequence (O00487 whole entry): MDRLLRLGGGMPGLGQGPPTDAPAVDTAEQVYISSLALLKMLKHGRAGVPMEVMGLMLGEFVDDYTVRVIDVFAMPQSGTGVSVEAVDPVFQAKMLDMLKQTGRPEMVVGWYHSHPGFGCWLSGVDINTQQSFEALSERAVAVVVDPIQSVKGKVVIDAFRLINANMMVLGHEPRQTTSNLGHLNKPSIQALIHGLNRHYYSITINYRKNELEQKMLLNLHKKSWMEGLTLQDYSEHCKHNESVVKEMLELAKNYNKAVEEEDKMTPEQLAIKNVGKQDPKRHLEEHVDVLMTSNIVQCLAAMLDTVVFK

Prothrombin = Prothrombin (Bos taurus, UniProt P00735); assay: thrombin protease inhibitors – biochemical, fluorescence polarization, uHTS hits, dose response (AID 602369); assay type: functional
[6] = molecular target: T2, V-type proton ATPase subunit c' (Saccharomyces cerevisiae S288c, UniProt P32842); assay: Dose Response with BCECF Assay for V-ATPase inhibitors that increase vacuolar pH, Powder Set 1.; assay type: functional; conditions: read-out: EC50_MICROM
T2 sequence (P32842 whole entry): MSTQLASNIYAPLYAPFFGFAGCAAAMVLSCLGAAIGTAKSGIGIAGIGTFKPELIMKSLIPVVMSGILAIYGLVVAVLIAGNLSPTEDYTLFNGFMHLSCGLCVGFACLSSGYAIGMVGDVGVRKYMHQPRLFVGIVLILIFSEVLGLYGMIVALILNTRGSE

[7] = molecular target: T2, V-type proton ATPase subunit c'; assay: Dose Response of Small Molecules that Regulate V-ATPase Proton Transport in Yeast using pHLuorin, Cherry Pick 2.; assay type: functional; conditions: read-out: EC50_MICROM
[8] = molecular target: T2, V-type proton ATPase subunit c'; assay: Dose Response of Small Molecules that Regulate V-ATPase Proton Transport in Yeast using pHLuorin, Powder Set1.; assay type: functional; conditions: read-out: EC50_MICROM
[9] = NIH3T3 cell viability loss – ATP luminescence, mouse fibroblasts, counter-screen, dose response (AID 2010); assay type: functional, cell-based;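 note: cells exposed to compound for about 90 hours before reading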
[10] = Trypanosoma cruzi growth suppression in host cells – NIH3T3 host cells, beta-gal luminescence, confirmation (AID 2044); assay type: functional, cell-based;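 note: intracellular parasites grown in NIH/3T3 mouse fibroblasts as host cells; luminescent beta-galactosidase reporter signal from transgenic T. cruzi replicating inside host cells; inhibitors lower the luminescence signal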

Q: Which EC50 [1] does the source give for COc1ccc(OC)c(C2=NOC(C(=O)O)C2)c1 (stereo unspecified) here?
A: > 100000 nM (inactive)

Q: What about the EC50 [2] of the same compound?
A: > 100000 nM (inactive)

Q: With COC(=O)c1ccccc1Cn1ncc(Cl)c(Oc2ccc(OC)cc2)c1=O as the compound, how does the IC50 [3] read?
A: 1160 nM (active)

Q: With O=[N+]([O-])c1ccc(N/N=C/c2sc(N3CCOCC3)nc2-c2ccccc2)c(S(=O)(=O)Nc2ccccc2Cl)c1 as the compound, how does the IC50 [4] read?
A: > 100000 nM (inactive)

Q: What about the IC50 [5] of the same compound?
A: 658 nM (active)

Q: And the IC50 (Prothrombin)?
A: 564 nM (active)

Q: Which EC50 [6] does the source give for O=C(c1ccc([N+](=O)[O-])o1)N1CCN(c2nc3c(F)cc(F)cc3s2)CC1 here?
A: 390 nM (active)

Q: What about the EC50 [7] of the same compound?
A: 8900 nM (active)

Q: And the EC50 [8]?
A: 1930 nM (active)

Q: And the EC50 [9]?
A: 22400 nM (active)

Q: What about the EC50 [10] of the same compound?
A: 466 nM (active)
